Calls of active or inactive are those of the source. No cut-off for these calls is given here.
Assays:
Rattus norvegicus [1] = assay: Inhibition of retinal vascular leakage in STZ-induced Wistar rat diabetic retinopathy model assessed as reduction in FITC-dextran leakage at 50 ug/eye administered intravitreally measured after 3 days by fluorescence microscopic method; format: functional
Rattus norvegicus [2] = assay: Downregulation of ICAM-1 level in STZ-induced Wistar rat diabetic retinopathy model at 50 ug/eye administered intravitreally measured after 3 days by Western blot method; format: functional
Rattus norvegicus [3] = assay: Inhibition of retinal leukostasis in STZ-induced Wistar rat diabetic retinopathy model assessed as adherent leukocyte count per retina at 50 ug/eye administered intravitreally measured after 3 days by FITC-ConA staining based fluorescence microscopic method (reference value: 52 +/- 10); format: functional
Rattus norvegicus [4] = assay: Downregulation of TNFalpha level in STZ-induced Wistar rat diabetic retinopathy model at 50 ug/eye administered intravitreally measured after 3 days by Western blot method; format: functional
Rattus norvegicus [5] = assay: Inhibition of retinal vascular leakage in STZ-induced Wistar rat diabetic retinopathy model assessed as Evans blue albumin level in retina at 50 ug/eye administered intravitreally measured after 3 days (reference value: 82.94 +/- 11.2 ug/g); format: functional
Homo sapiens [6] = species: Homo sapiens; assay: Inhibition of TNFalpha-stimulated NF-kB in HUVEC assessed as reduction in ICAM1 mRNA level up to 20 uM preincubated with cells followed by TNFalpha stimulation measured after 30 mins by RT-PCR method
Rattus norvegicus [7] = assay: Toxicity in STZ-induced Wistar rat diabetic retinopathy model assessed as TUNEL positive cells in retinal layers at 75 ug/eye administered intravitreally measured after 3 days by fluorescence microscopic method; conditions: in vivo, topical_or_ocular, 72 h
[8] = molecular target: c-Jun N-terminal kinase, JNK (Homo sapiens) (UniProt P45983+P53779+P45984); assay: Inhibition of TNFalpha-stimulated JNK phosphorylation in HUVEC up to 20 uM preincubated with cells followed by TNFalpha stimulation measured after 30 mins by Western blot method
HUVEC = assay: Cytotoxicity against HUVEC assessed as reduction in cell viability up to 20 uM after 24 hrs by MTT assay; format: cell-based; conditions: human
[9] = molecular target: T1, Inhibitor of nuclear factor kappa-B kinase subunit beta (Homo sapiens) (UniProt O14920); assay: Inhibition of IKKbeta in HUVEC assessed as reduction in TNFalpha-stimulated IkBalpha phosphorylation at Ser-32 residue preincubated with cells followed by TNFalpha stimulation measured after 30 mins by Western blot method
T1 sequence (whole entry): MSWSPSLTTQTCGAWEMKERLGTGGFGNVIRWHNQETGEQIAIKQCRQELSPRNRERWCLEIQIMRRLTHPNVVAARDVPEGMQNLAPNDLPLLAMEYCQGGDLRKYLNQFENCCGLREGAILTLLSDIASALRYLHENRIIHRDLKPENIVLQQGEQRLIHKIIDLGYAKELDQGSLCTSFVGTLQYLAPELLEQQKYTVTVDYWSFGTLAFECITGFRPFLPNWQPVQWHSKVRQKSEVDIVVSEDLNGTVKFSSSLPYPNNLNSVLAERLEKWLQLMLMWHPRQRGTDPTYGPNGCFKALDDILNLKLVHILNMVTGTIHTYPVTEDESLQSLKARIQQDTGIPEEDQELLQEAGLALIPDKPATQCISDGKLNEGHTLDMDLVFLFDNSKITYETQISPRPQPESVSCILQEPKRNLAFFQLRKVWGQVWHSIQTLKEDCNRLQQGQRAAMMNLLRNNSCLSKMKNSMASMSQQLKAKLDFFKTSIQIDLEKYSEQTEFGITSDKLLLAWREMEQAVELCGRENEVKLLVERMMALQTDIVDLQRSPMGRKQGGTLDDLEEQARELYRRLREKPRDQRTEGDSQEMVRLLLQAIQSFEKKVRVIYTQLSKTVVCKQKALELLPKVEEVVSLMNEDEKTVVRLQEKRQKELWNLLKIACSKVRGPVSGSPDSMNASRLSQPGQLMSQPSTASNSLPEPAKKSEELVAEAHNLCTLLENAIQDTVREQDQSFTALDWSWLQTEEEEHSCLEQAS

Homo sapiens [10] = species: Homo sapiens; assay: Inhibition of TNFalpha-stimulated NF-kB in HUVEC assessed as reduction in TNFalpha mRNA level up to 20 uM preincubated with cells followed by TNFalpha stimulation measured after 30 mins by RT-PCR method
[11] = molecular target: MAP kinase p38 (Homo sapiens) (UniProt O15264+Q15759+Q16539+P53778); assay: Inhibition of TNFalpha-stimulated MAPK p38 phosphorylation in HUVEC preincubated with cells followed by TNFalpha stimulation measured after 30 mins by Western blot method
Rattus norvegicus [12] = assay: Toxicity in STZ-induced Wistar rat diabetic retinopathy model assessed as inflammatory cells accumulation in retina at 75 ug/eye administered intravitreally measured after 3 days by hematoxylin and eosin staining based assay; conditions: in vivo, topical_or_ocular, 72 h
Rattus norvegicus [13] = assay: Toxicity in STZ-induced Wistar rat diabetic retinopathy model assessed as effect on retina thickness at 75 ug/eye administered intravitreally measured after 3 days by hematoxylin and eosin staining based assay; conditions: in vivo, topical_or_ocular, 72 h
Rattus norvegicus [14] = assay: Toxicity in STZ-induced Wistar rat diabetic retinopathy model assessed as inflammatory cells accumulation in choroid tissues at 75 ug/eye administered intravitreally measured after 3 days by hematoxylin and eosin staining based assay; conditions: in vivo, topical_or_ocular, 72 h
[15] = molecular target: Transcription factor p65 (Homo sapiens) (UniProt Q04206); assay: Inhibition of TNFalpha-stimulated NF-kB p65 nuclear translocation in HUVEC up to 20 uM preincubated with cells followed by TNFalpha stimulation measured after 30 mins by Western blot method
Sequence of Transcription factor p65 (Homo sapiens) (Q04206 whole entry): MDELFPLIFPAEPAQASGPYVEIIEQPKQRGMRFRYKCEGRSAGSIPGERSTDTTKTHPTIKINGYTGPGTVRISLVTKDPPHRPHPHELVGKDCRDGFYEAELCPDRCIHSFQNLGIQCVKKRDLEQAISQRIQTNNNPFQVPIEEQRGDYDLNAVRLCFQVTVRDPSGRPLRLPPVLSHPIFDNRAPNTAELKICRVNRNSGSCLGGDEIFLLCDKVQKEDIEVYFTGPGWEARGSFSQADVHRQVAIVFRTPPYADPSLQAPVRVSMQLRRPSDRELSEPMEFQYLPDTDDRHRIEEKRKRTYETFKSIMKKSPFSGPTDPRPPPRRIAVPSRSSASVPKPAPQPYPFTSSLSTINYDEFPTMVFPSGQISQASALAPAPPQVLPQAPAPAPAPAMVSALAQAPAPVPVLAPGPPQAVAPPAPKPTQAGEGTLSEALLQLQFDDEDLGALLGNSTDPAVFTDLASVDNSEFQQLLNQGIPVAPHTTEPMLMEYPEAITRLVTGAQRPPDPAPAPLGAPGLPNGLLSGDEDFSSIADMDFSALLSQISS

[16] = molecular target: T1, Inhibitor of nuclear factor kappa-B kinase subunit beta (Homo sapiens); assay: Inhibition of TNFalpha-stimulated IKKbeta phosphorylation at Ser-177 residue in HUVEC preincubated with cells followed by TNFalpha stimulation measured after 30 mins by Western blot method
[17] = molecular target: Transcription factor p65 (Homo sapiens) (UniProt Q04206); assay: Inhibition of TNFalpha-stimulated NF-kB p65 phosphorylation at Ser-536 residue in HUVEC up to 20 uM preincubated with cells followed by TNFalpha stimulation measured after 30 mins by Western blot method
Rattus norvegicus [18] = assay: Toxicity in STZ-induced Wistar rat diabetic retinopathy model assessed as inflammatory cells accumulation in vitreous at 75 ug/eye administered intravitreally measured after 3 days by hematoxylin and eosin staining based assay; conditions: in vivo, topical_or_ocular, 72 h
[19] = molecular target: Transcription factor p65 (Homo sapiens) (UniProt Q04206); assay: Inhibition of TNFalpha-stimulated NF-kB p65 phosphorylation at Ser-276 residue in HUVEC up to 20 uM preincubated with cells followed by TNFalpha stimulation measured after 30 mins by Western blot method

**Q.** What does the source list for CC1(C)O[C@@H]2C[C@H]3[C@@H]4CCC5=CC(=O)C=C[C@]5(C)[C@@]4(F)[C@@H](O)C[C@]3(C)[C@]2(C(=O)CO)O1 [TRIAMCINOLONE ACETONIDE]?
**A.** inhibition (Rattus norvegicus [1]): Active; Activity (Rattus norvegicus [2]): Active; Activity (Rattus norvegicus [3]): 19; Activity (Rattus norvegicus [4]): Active; Activity (Rattus norvegicus [5]): 36.33 µg/g

**Q.** How did the inhibition (Homo sapiens [6]) turn out when CC1=C[C@]2(C(C)(C)O)C[C@]3(OC2=O)[C@@H](C)CC[C@@H]13 was run?
**A.** Active

**Q.** And the inhibition (Rattus norvegicus [1])?
**A.** Active

**Q.** And the Activity (Rattus norvegicus [7])?
**A.** Non-Toxic

**Q.** What about the inhibition [8] of the same compound?
**A.** inactive

**Q.** What about the Activity (HUVEC) of the same compound?
**A.** Non-Toxic

**Q.** What about the inhibition [9] of the same compound?
**A.** Dose-dependent effect

**Q.** And the inhibition (Homo sapiens [10])?
**A.** Active

**Q.** And the inhibition [11]?
**A.** Dose-dependent effect

**Q.** What about the Activity (Rattus norvegicus [12]) of the same compound?
**A.** Non-Toxic

**Q.** What about the Activity (Rattus norvegicus [13]) of the same compound?
**A.** Non-Toxic

**Q.** What about the Activity (Rattus norvegicus [14]) of the same compound?
**A.** Non-Toxic

**Q.** What about the Activity (Rattus norvegicus [2]) of the same compound?
**A.** Active

**Q.** What about the inhibition [15] of the same compound?
**A.** Active

**Q.** And the inhibition [16]?
**A.** Dose-dependent effect

**Q.** What about the Activity (Rattus norvegicus [3]) of the same compound?
**A.** 25

**Q.** And the inhibition [17]?
**A.** Active

**Q.** And the Activity (Rattus norvegicus [4])?
**A.** Active

**Q.** And the Activity (Rattus norvegicus [18])?
**A.** Non-Toxic

**Q.** What about the Activity (Rattus norvegicus [5]) of the same compound?
**A.** 43.53 µg/g

**Q.** And the inhibition [19]?
**A.** Active

Source: ChEMBL document CHEMBL4007468, “Curcumolide reduces diabetic retinal vascular leukostasis and leakage partly via inhibition of the p38MAPK/NF-κ B signaling” (Bioorg Med Chem Lett, 2017)
